{
  "source": "paper PMC6698794",
  "about": "“Catalytic Knockdown of miR-21 by Artificial Ribonuclease: Biological Performance in Tumor Model” (Frontiers in Pharmacology, 2019)",
  "key": {"[1]": {"test_system": "miR-21", "assay": "Cleavage of 5′-[32P]-labeled miR-21 by miR-21-miRNase and/or RNase H in multiple turnover conditions", "format": "biochemical", "conditions": "for Level of cleavage of miR-21 by miRNase alone: 5- or 10-fold excess of target; for Level of cleavage of miR-21 by miRNase alone / τ/2, half-life time of miR-21: miRNase 5 µM, 37°C", "experimental": "Unlabeled miR-21 (10 µM, 25 µM, or 50 µM) and 10^5 cpm (Cherenkov’s counting) of [^32P]-miR-21 was incubated at 37°C with either miR-21-miRNase (5 µM) or RNase H (100 U/ml, plus 5 µM of either h-ODN or miR-21-miRNase) in buffer (20 mM Tris-HCl, pH 7.8, 40 mM KCl, 8 mM MgCl2, 1 mM DTT). Reactions were quenched by precipitation of RNA with 2% LiClO4 in acetone, and RNA cleavage products quantified in dried gels as described previously ([Patutina et al., 2017a]) using Molecular Imager FX and Quantity One software.\nFigure 4 Cleavage of 5’-[^32P]-labeled miR-21 by miR-21-miRNase and/or RNase H. Autoradiographs of 18% polyacrylamide/8 M urea gel, showing the patterns of cleavage of miR-21 at its 2- (A), 5- (C), and 10-fold (E) molar excess over miR-21-miRNase or h-ODN. […] Duplexes formed by 5′-[^32P]-miR-21 (10, 25, and 50 µM) and h-ODN or miRNase (5 µM) were incubated at 37°C for 24–72 h. Lanes Im and T1: imidazole ladder and partial RNA digestion with RNase T1, respectively; “control”: RNA was incubated in the absence of oligonucleotide or conjugate and in the presence of RNase H (100 U/ml). Diagrams (B), (D), and (F) show time dependency of cleavage of miR-21 by miR-21-miRNase alone, by a synergetic action of miR-21-miRNase and RNase H, or by RNase H (100 U/ml) alone when miR-21 was in a complex with h-ODN at 2-, 5- and 10-fold molar excess of miR-21 over miR-21-miRNase or h-ODN, respectively. (G) Positions of miR-21 cleavage induced by miR-21-miRNase (red arrows), RNase H in the duplex with h-ODN (black arrows), and by combination of miR-21-miRNase and RNase H. (H) The hypothetical representation of miR-21 cleavage by a combination of miRNase and RNase H."}, "[2]": {"test_system": "miR-21", "assay": "miR-21 level in transfected RLS40 cells by PCR analysis", "format": "cell-based, mouse", "experimental": "(§1) RLS40 ascites were taken from CBA mice intraperitoneally injected with tumor cells (2 × 10^6 in 0.2 ml buffered saline) into their abdominal cavities. RLS40 cells, isolated from ascites fluid by filtration through LSM were divided into seven portions: 1) untreated cells; 2) the cells incubated with Lipofectamine; the cells transfected with 1 µM of 3) h-ODN, 4) 2′-OMe, 5) Inh, 6) miR-21-miRNase, or 7) luc-POC each. After 4 h of transfection, cell suspensions (0.1 ml, 2 × 10^6 cells) were intramuscularly inoculated into the right lower limb of CBA mice for solid tumor development. As soon as tumors began to be palpable, the tumor volumes were measured every 2–3 days using calipers. Tumor volumes were calculated as V = (π/6 × length × width × height). Hepatic index was estimated as (liver weight/mouse weight) × 100% and as 5.0% for healthy CBA mice. Tumor doubling time (DT) was estimated as DT = (t − t0) × ln 2/(ln V − ln V0), where (t − t0) indicates the length of time between two measurements of tumor size and V0 and V denote the tumor volume at two points of the measurement ([Ozono et al., 2004]).\nSupplementary Figure 3. Expression level of miR-21 and PTEN and PDCD4 protein level in RLS40 cells after transfection with 1 µM of luc-POC or miR-21-miRNase using LipofectamineTM 2000. (A) Expression level of miR-21 24 h after transfection. The expression of miRNAs was normalized to U6. […]"}, "[3]": {"test_system": "RLS40 lymphosarcoma", "assay": "Tumor transplantation assay: RLS40 cells treated ex vivo, then inoculated intramuscularly", "format": "in vivo, CBA mice", "conditions": "for Tumor doubling time, DT: DT = (t − t0) × ln 2/(ln V − ln V0)", "experimental": "as §1\nFigure 3 Antitumor effect of miR-21-specific miRNase. (A) Retardation of RLS40 growth in vivo after treatment of RLS40 cells with antisense oligonucleotides, control conjugate (luc-POC), or miR-21-miRNase. (B) Tumor volume on day 19 after RLS40 transplantation. Mice were injected with RLS40 cells either without any treatment (w/t) or treated with Lipofectamine (LF), commercial miR-21 inhibitor at concentration 0.1 µM (Inh 0.1, recommended) and 1 µM (Inh 1, in accordance to concentration of miRNase used in the study), control conjugate (luc-POC, 1 µM), hairpin 2′OMe oligonucleotide (2′-OMe, 1 µM), hairpin antisense oligonucleotide (h-ODN, 1 µM) or miR-21-specific miRNase (miR-21-miRNase, 1 µM). Data were statistically analyzed using two-way ANOVA with post hoc Tukey test. Data are presented as mean ± s.e. p-value indicates a statistically reliable difference. (C) Doubling time of RLS40 tumors after treatment with oligonucleotides and conjugates. TEXT PRINTED IN THE PICTURE: (C) untreated: DT, days: 2,45±0,49 | (C) LF: DT, days: 2,48±0,35 | (C) Inh 0.1: DT, days: 2,56±0,59 | (C) Inh 1: DT, days: 13,90±0,46 | (C) 2’-OMe: DT, days: 3,17±1,45 | (C) luc-POC: DT, days: 2,40±0,45 | (C) h-ODN: DT, days: 3,00±1,83 | (C) miR-21-miRNase: DT, days: 12,77±0,34"}, "[4]": {"conditions": "cells treated with 1 µM before transplantation"}},
  "note": "Several values for one entry are separate records, joined by “and”; a condition that tells them apart may be missing. Equal entries are not always repeated.",
  "data": [
    {"substance": "acetyl-[(LeuArg)2Gly]2-aminohexyl-AGTCTGATAAGCTACAAGTCAGCGAAAGCTGACTTG [miR-21-miRNase, peptide acetyl-[(LeuArg)2Gly]2 conjugated through aminohexyl linker to 5′-end of miR-21-targeted hairpin oligodeoxyribonucleotide]", "values": [
      {"measurement": "Factor by which RNase H elevated cleavage of miR-21 (from τ/2)", "setting": "[1]; 2-fold excess of miR-21", "value": 14.9, "unit": "times"},
      {"measurement": "Factor by which RNase H enhanced the catalytic turnover", "setting": "[1]; 2-fold excess of miR-21", "value": 15.6, "unit": "times"},
      {"measurement": "Factor by which RNase H elevated cleavage of miR-21 (from τ/2)", "setting": "[1]; 5-fold excess of miR-21", "value": 3.0, "unit": "times"},
      {"measurement": "Factor by which RNase H enhanced the catalytic turnover", "setting": "[1]; 5-fold excess of miR-21", "value": 7.0, "unit": "times"},
      {"measurement": "Factor by which RNase H elevated cleavage of miR-21 (from τ/2)", "setting": "[1]; 10-fold excess of miR-21", "value": 2.4, "unit": "times"},
      {"measurement": "Factor by which RNase H enhanced the catalytic turnover", "setting": "[1]; 10-fold excess of miR-21", "value": 4.6, "unit": "times"},
      {"measurement": "Incubation time to complete (∼100%) RNA degradation", "setting": "[1]; miR-21-miRNase 5 µM with RNase H 100 U/ml, 2-fold excess of miR-21", "value": 8, "unit": "h"},
      {"measurement": "Incubation time to complete RNA degradation", "setting": "[1]; miR-21-miRNase 5 µM with RNase H 100 U/ml, 5-fold excess of miR-21", "value": 24, "unit": "h"},
      {"measurement": "Incubation time to complete RNA degradation", "setting": "[1]; miR-21-miRNase 5 µM with RNase H 100 U/ml, 10-fold excess of miR-21", "value": "≤ 48", "unit": "h"},
      {"measurement": "Level of cleavage of miR-21 by miRNase alone", "setting": "[1]; over 24 h, irrespective of 2-", "value": "65–68%"},
      {"measurement": "Level of cleavage of miR-21 by miRNase alone", "setting": "[1]; over 72 h, 2-", "value": 90, "unit": "%"},
      {"measurement": "τ/2, half-life time of miR-21", "setting": "[1]; with RNase H 100 U/ml, miR-21 10 µM (2-fold RNA excess), pH 7.8", "value": "0.7 ± 0.2", "unit": "h"},
      {"measurement": "τ/2, half-life time of miR-21", "setting": "[1]; with RNase H 100 U/ml, miR-21 25 µM (5-fold RNA excess), pH 7.8", "value": "5.4 ± 0.4", "unit": "h"},
      {"measurement": "τ/2, half-life time of miR-21", "setting": "[1]; with RNase H 100 U/ml, miR-21 50 µM (10-fold RNA excess), pH 7.8", "value": "4.7 ± 0.4", "unit": "h"},
      {"measurement": "τ/2, half-life time of miR-21", "setting": "[1]; without RNase H, miR-21 10 µM (2-fold RNA excess), Tris-HCl pH 7.8, 40 mM KCl, 8 mM MgCl2, 1 mM DTT, time for 50% cleavage", "value": "10.4 ± 0.5", "unit": "h"},
      {"measurement": "τ/2, half-life time of miR-21", "setting": "[1]; without RNase H, miR-21 25 µM (5-fold RNA excess), pH 7.8", "value": "16.2 ± 1.5", "unit": "h"},
      {"measurement": "τ/2, half-life time of miR-21", "setting": "[1]; without RNase H, miR-21 50 µM (10-fold RNA excess), pH 7.8", "value": "11.04 ± 0.8", "unit": "h"},
      {"measurement": "Decrease in miR-21 level", "setting": "[2]; RLS40 cells, 1 µM, 24 h after transfection, normalized to U6", "value": 2, "unit": "fold"},
      {"measurement": "Reduction in miR-21 level", "setting": "[2]; single treatment of tumor cells prior to transplantation", "value": 50, "unit": "%"},
      {"measurement": "Increase of tumor doubling time over untreated control (w/t)", "setting": "[3]; [4]", "value": "> 5", "unit": "fold"},
      {"measurement": "Tumor doubling time, DT", "setting": "[3]; [4]", "value": "12,77±0,34 days and 12.77 days"}
    ]},
    {"substance": "h-ODN: miR-21-targeted hairpin deoxyribooligonucleotide AGTCTGATAAGCTACAAGTCAGCGAAAGCTGACTTG, unconjugated with the peptide (DNA, backbone and methylation of C not given here; hairpin at 3' end, unconjugated)", "values": [
      {"measurement": "Total extent of miR-21 cleavage in heteroduplex with h-ODN by RNase H alone", "setting": "[1]; RNase H 100 U/ml, h-ODN 5 µM, 2-fold excess of miR-21, plateau by 30 min", "value": 45, "unit": "%"},
      {"measurement": "Extent of miR-21 cleavage in heteroduplex with h-ODN by RNase H alone", "setting": "[1]; RNase H 100 U/ml, h-ODN 5 µM, 5-fold excess of miR-21", "value": "about 10%"},
      {"measurement": "Extent of miR-21 cleavage in heteroduplex with h-ODN by RNase H alone", "setting": "[1]; RNase H 100 U/ml, h-ODN 5 µM, 10-fold excess of miR-21", "value": "~5", "unit": "%"},
      {"measurement": "Retardation of tumor growth, mean tumor volume times less than in the control group", "setting": "[3]; cells transfected once with 1 µM for 4 h, 2 × 10^6 cells i.m. into CBA mice, day 19", "value": "about 2 fold"},
      {"measurement": "Tumor doubling time against w/t (in words)", "setting": "[3]; [4]", "value": "did not show a statistically significant difference"},
      {"measurement": "Tumor doubling time, DT", "setting": "[3]; [4]", "value": "3,00±1,83 days"}
    ]}
  ]
}
